Here are results for 24 molecules from patent US8143394B2, “Pyrido(3,2-d)pyrimidines useful for treating viral infections” (Gilead Sciences, Inc., priority 2006, dated 2012).

Data set [1] in a line: CC50 assay (CellTiter-Glo) in Huh-7 HCV replicon cells. The settings on record: human, 50% cytostatic concentration. It counts as cell-based, human. The method, then: (§1) The anti-HCV activity of the pyrido[3,2-d]pyrimidine derivatives of this invention was tested in a human hepatoma Huh-7 cell line harbouring a HCV replicon. The assay comprised the following steps:
(§2) Step 1: Compound Preparation and Serial Dilution
(§3) • 1. for water soluble pyrido[3,2-d]pyrimidine derivatives, a volume of 500 μL of solution in cell media (DMEM, 10% FBS, P/S, L-Glutamine) was prepared with a concentration being twice the concentration of the starting final serial dilution concentration. A volume of 150 μL of the solution was added to the pre-specified wells in column 1 of a 96-well cell culture plate (PerkinElmer, white plate, cat. #6005181, for EC50 assay; black plate, cat. #6005182 for CC50 assay). The rest of the plate, columns 2-12, was filled with 100 μL of cell media. The plate was then placed on a Precision 2000 Workstation to start the serial dilution. Compounds were diluted three times each step from column 1 to column 10. Column 11 was used as a blank control (no compound added). • 2. for pyrido[3,2-d]pyrimidine derivatives requiring DMSO to dissolve, serial dilution is performed in 50% DMSO in a 384-well plate. A solution containing a compound at 100-fold concentration of the starting final serial dilution concentration was prepared in 50% DMSO and added to the pre-specified wells in column 1 of a polypropylene 384-well plate. The plate was then placed on a Precision 2000 Workstation to start the serial dilution. After the serial dilution, a volume of 2 μL of the solution was transferred from the 384-well plate to a 96-well cell culture plate containing 100 μL of cell media on a Biomek FX Workstation. The DMSO concentration in the final assay condition was 0.5% after cells are added to the plate and the total volume in each well is brought to 200 μL. Step 2: to each well of the serial dilution plate prepared above, 100 μL of cell media containing 6000 suspended Huh-7 HCV replicon cells was added with a Multidrop workstation. The plates were incubated for 3 days at 37° C. with 5% CO2. Step 3: Detection: • a) for the EC50 assay, the media in a 96-well cell culture plate was aspirated with a Biotek EL405 plate-washer. A volume of 200 μL of a solution containing a 1:1 mixture of cell-lysis buffer (Promega, Luciferase Cell Culture Lysis 5X Reagent, cat. #E1531) and luciferase substrate solution (Promega, Luciferase Assay, cat. # E4550) was added to each well of the plate with Multidrop. The plate was incubated for 30 minutes at room temperature before the luminescence signal was measured with a TopCount plate-reader. • b) for the CC50 assay, a volume of 100 μL of pre-mixed CellTiter-Glo (Promega, cat. # G7572) solution is added directly to the cell culture in each well of the plate and the luminescence signal is measured with a TopCount plate-reader after 10 minutes of incubation at room temperature.
(§4) Results in table 13 are expressed by the following data: • the 50% effective concentration (EC50), i.e. the concentration that protects 50% of the cell monolayer from virus-induced cythopathic effect, and • the 50% cytostatic concentration (CC50), i.e. the concentration that results in 50% inhibition of cell growth.

Data set [2] has as its system HCV replicon. As to the kind of experiment: Anti-HCV replicon assay (EC50, luciferase readout). It counts as cell-based. Conditions: Hepatitis C virus, 72 h; human hepatoma Huh-7 cell line harbouring a HCV replicon; 3 days; luciferase; read-out: EC50. The method, then: as §1, §2, §3, §4
On the technique in general: In antiviral work, replicon cells carry a viral genome segment that copies itself.

The term CC50 denotes the concentration that lowers cell viability or growth by half. Higher therefore signals better tolerance by the cells. As usually defined, the EC50 is the concentration needed to bring the measured effect to its halfway point. Molecule `CC(C)(N)C(=O)Nc1ccc(-c2ccc3nc(N)nc(NCCS(C)(=O)=O)c3n2)cc1` [Example 1, 2-Amino-N-{4-[2-amino-4-(2-methanesulfonyl-ethylamino)-pyrido[3,2-d]pyrimidin-6-yl]-phenyl}-2-methyl-propionamide] showed a CC50 at 3 days in data set [1] below 10 µM. Further, in data set [2], the concentration for a half-maximal effect (EC50) is below 0.3 µM.

In turn, `CS(=O)(=O)CCNc1nc(N)nc2ccc(-c3cccc(NS(=O)(=O)C4CC4)c3)nc12` [Example 2, Cyclopropanesulfonic acid {3-[2-amino-4-(2-methanesulfonyl-ethylamino)-pyrido[3,2-d]pyrimidin-6-yl]-phenyl}-amide] returned a CC50 at 3 days in data set [1] above 20 µM. In addition, in data set [2], the half-maximal effective concentration (EC50) was in the range of 0.3 to 1 µM.

`CS(=O)(=O)CCNc1nc(N)nc2ccc(-c3cccc(NS(C)(=O)=O)c3)nc12` [Example 3, N-{3-[2-Amino-4-(2-methanesulfonyl-ethylamino)-pyrido[3,2-d]pyrimidin-6-yl]-phenyl}-methanesulfonamide] showed a CC50 at 3 days in data set [1] above 20 µM. For the same molecule, the concentration for a half-maximal effect (EC50) in data set [2] was 0.3 to 1 µM.

Take `CCC(=O)Nc1ccc(-c2ccc3nc(N)nc(NCCS(C)(=O)=O)c3n2)cc1` [Example 4, N-{4-[2-Amino-4-(2-methanesulfonyl-ethylamino)-pyrido[3,2-d]pyrimidin-6-yl]-phenyl}-propionamide]: the half-maximal cytotoxic concentration (CC50) at 3 days in data set [1] was above 20 µM. Further, in data set [2], the EC50 is above 1 µM.

Regarding `CC(C)C(=O)Nc1ccc(-c2ccc3nc(N)nc(NCCS(C)(=O)=O)c3n2)cc1` [Example 5, N-{4-[2-Amino-4-(2-methanesulfonyl-ethylamino)-pyrido[3,2-d]pyrimidin-6-yl]-phenyl}-isobutyramide], the cytotoxic concentration (CC50) at 3 days in data set [1] was above 20 µM. Also, in data set [2], the EC50 is below 0.3 µM.

The molecule `COC(=O)Nc1ccc(-c2ccc3nc(N)nc(NCCS(C)(=O)=O)c3n2)cc1` [Example 6, {4-[2-Amino-4-(2-methanesulfonyl-ethylamino)-pyrido[3,2-d]pyrimidin-6-yl]phenyl}-carbamic acid methyl ester] had a 50% cytotoxic concentration (CC50) at 3 days in data set [1] of 10 to 20 µM. Moreover, in data set [2], the EC50 fell in the range of 0.3 to 1 µM.

On to `CS(=O)(=O)CCNc1nc(N)nc2ccc(-c3ccc(C(=O)NC4CC4)cc3)nc12` [Example 7, 4-[2-Amino-4-(2-methanesulfonyl-ethylamino)-pyrido[3,2-d]pyrimidin-6-yl]-N-cyclopropyl-benzamide], for which, in data set [1], the CC50 at 3 days is above 20 µM. Besides, the 50% effective concentration (EC50) in data set [2] lay in the range of 0.3 to 1 µM.

In data set [1], `CCC(=O)Nc1ccc(-c2ccc3nc(N)nc(NCCOC)c3n2)cc1` [Example 8, N-{4-[2-Amino-4-(2-methoxy-ethylamino)-pyrido[3,2-d]pyrimidin-6-yl]-phenyl}-propionamide] gave a CC50 at 3 days above 20 µM. Also, the EC50 in data set [2] is below 0.3 µM.

In data set [1], `COCCNc1nc(N)nc2ccc(-c3ccc(NC(=O)C(C)C)cc3)nc12` [Example 9, N-{4-[2-Amino-4-(2-methoxy-ethylamino)-pyrido[3,2-d]pyrimidin-6-yl]-phenyl}-isobutyramide] displayed a CC50 at 3 days of 10 to 20 µM. Moreover, the 50% effective concentration (EC50) in data set [2] was below 0.3 µM.

For the molecule `COCCNc1nc(N)nc2ccc(-c3ccc(NC(=O)OC)cc3)nc12` [Example 10, {4-[2-Amino-4-(2-methoxy-ethylamino)-pyrido[3,2-d]pyrimidin-6-yl]-phenyl}-carbamic acid methyl ester], the 50% cytotoxic concentration (CC50) at 3 days in data set [1] was above 20 µM. For the same molecule, the EC50 in data set [2] fell in the range of 0.3 to 1 µM.

On to `COCCNc1nc(N)nc2ccc(-c3ccc(C(=O)NC4CC4)cc3)nc12` [Example 11, 4-[2-Amino-4-(2-methoxy-ethylamino)-pyrido[3,2-d]pyrimidin-6-yl]-N-cyclopropyl-benzamide], for which the CC50 at 3 days in data set [1] is above 20 µM. For the same molecule, the concentration for a half-maximal effect (EC50) in data set [2] is below 0.3 µM.

`CCC(=O)Nc1ccc(-c2ccc3nc(N)nc(N4CCS(=O)(=O)CC4)c3n2)cc1` [Example 12, N-{4-[2-Amino-4-(1,1-dioxo-1λ^6-thiomorpholin-4-yl)-pyrido[3,2-d]pyrimidin-6-yl]-phenyl}-propionamide]: the half-maximal cytotoxic concentration (CC50) at 3 days in data set [1] was below 10 µM. Also, the EC50 in data set [2] is below 0.3 µM.

The molecule `COC(=O)Nc1ccc(-c2ccc3nc(N)nc(N4CCS(=O)(=O)CC4)c3n2)cc1` [Example 13, {4-[2-Amino-4-(1,1-dioxo-1λ^6-thiomorpholin-4-yl)-pyrido[3,2-d]pyrimidin-6-yl]-phenyl}-carbamic acid methyl ester] gave a CC50 at 3 days in data set [1] above 20 µM. Moreover, in data set [2], the EC50 was below 0.3 µM.

`CC(C)C(=O)Nc1ccc(-c2ccc3nc(N)nc(N4CCS(=O)(=O)CC4)c3n2)cc1` [Example 14, N-{4-[2-Amino-4-(1,1-dioxo-1λ^6-thiomorpholin-4-yl)-pyrido[3,2-d]pyrimidin-6-yl]-phenyl}-isobutyramide] yielded a 50% cytotoxic concentration (CC50) at 3 days in data set [1] above 20 µM. The 50% effective concentration (EC50) in data set [2] is below 0.3 µM.

For the molecule `CC(=O)Nc1ccc(-c2ccc3nc(N)nc(N4CCS(=O)(=O)CC4)c3n2)cc1` [Example 15, N-{4-[2-Amino-4-(1,1-dioxo-1λ^6-thiomorpholin-4-yl)-pyrido[3,2-d]pyrimidin-6-yl]-phenyl}-acetamide], the 50% cytotoxic concentration (CC50) at 3 days in data set [1] was above 20 µM. In data set [2], the EC50 is below 0.3 µM.

Molecule `Nc1nc(N2CCS(=O)(=O)CC2)c2nc(-c3ccc(C(=O)NC4CC4)cc3)ccc2n1` [Example 16, 4-[2-Amino-4-(1,1-dioxo-1λ^6-thiomorpholin-4-yl)-pyrido[3,2-d]pyrimidin-6-yl]-N-cyclopropyl-benzamide] came in with a CC50 at 3 days in data set [1] of 10 to 20 µM. The concentration for a half-maximal effect (EC50) in data set [2] is below 0.3 µM.

`Nc1nc(N2CCOCC2)c2nc(-c3ccc(C(=O)NC4CC4)cc3)ccc2n1` [Example 17, 4-(2-amino-4-morpholin-4-yl-pyrido[3,2-d]pyrimidin-6-yl)-N-cyclopropyl-benzamide]: the CC50 at 3 days in data set [1] is below 10 µM. In data set [2], the EC50 is below 0.3 µM.

The molecule `CCC(=O)Nc1ccc(-c2ccc3nc(N)nc(OCCOC)c3n2)cc1` [Example 18, N-{4-[2-Amino-4-(2-methoxy-ethoxy)-pyrido[3,2-d]pyrimidin-6-yl]-phenyl}-propionamide] gave a cytotoxic concentration (CC50) at 3 days in data set [1] above 20 µM. Further, the EC50 in data set [2] lay in the range of 0.3 to 1 µM.

In data set [1], `COCCOc1nc(N)nc2ccc(-c3ccc(NC(=O)OC)cc3)nc12` [Example 19, {4-[2-Amino-4-(2-methoxy-ethoxy)-pyrido[3,2-d]pyrimidin-6-yl]-phenyl}-carbamic acid methyl ester] came in with a CC50 at 3 days above 20 µM. Also, the EC50 in data set [2] fell in the range of 0.3 to 1 µM.

In data set [1], `COCCOc1nc(N)nc2ccc(-c3ccc(C(=O)NC4CC4)cc3)nc12` [Example 20, 4-[2-Amino-4-(2-methoxy-ethoxy)-pyrido[3,2-d]pyrimidin-6-yl]-N-cyclopropyl-benzamide] yielded a CC50 at 3 days above 20 µM. Moreover, the EC50 in data set [2] is below 0.3 µM.

Consider `CC(C)C(=O)Nc1ccc(-c2ccc3nc(N)nc(OCCF)c3n2)cc1` [Example 21, N-{4-[2-amino-4-(2-fluoro-ethoxy)-pyrido[3,2-d]pyrimidin-6-yl]-phenyl}-isobutyramide], for which the CC50 at 3 days in data set [1] was above 20 µM. Also, the half-maximal effective concentration (EC50) in data set [2] lay within 0.3 to 1 µM.

Molecule `Nc1nc(O[C@@H]2CCOC2)c2nc(-c3ccc(NC(=O)[C@H]4CCNC4)c(F)c3)ccc2n1` [Example 22, Pyrrolidine-3-carboxylic acid {4-[2-amino-4-(tetrahydro-furan-3-yloxy)-pyrido[3,2-d]pyrimidin-6-yl]-2-fluoro-phenyl}-amide] came in with a CC50 at 3 days in data set [1] above 20 µM. Besides, in data set [2], the concentration giving a half-maximal response (EC50) was below 0.3 µM.

Regarding `CC(C)(N)C(=O)Nc1ccc(-c2ccc3nc(N)nc(O[C@@H]4CCOC4)c3n2)cc1F` [Example 23, 2-Amino-N-{4-[2-amino-4-(tetrahydro-furan-3-yloxy)-pyrido[3,2-d]pyrimidin-6-yl]-2-fluoro-phenyl}-2-methyl-propionamide], in data set [1], the 50% cytotoxic concentration (CC50) at 3 days is above 20 µM. Also, the EC50 in data set [2] is below 0.3 µM.

On to `Nc1nc(O[C@@H]2CCOC2)c2nc(-c3ccc(NC(=O)[C@H]4CCNC4)cc3)ccc2n1` [Example 24, Pyrrolidine-3-carboxylic acid {4-[2-amino-4-(tetrahydro-furan-3-yloxy)-pyrido[3,2-d]pyrimidin-6-yl]-phenyl}-amide], for which the CC50 at 3 days in data set [1] was above 20 µM. In data set [2], the EC50 was above 1 µM.
